{"source": "patent US11414424B2", "about": "“Cardiac sarcomere inhibitors” (Cytokinetics, Inc., priority 2018, dated 2022)", "data": [{"test_system": "bovine cardiac myofibrils", "assay": "Myofibril assay: PK/LDH-coupled steady-state ATPase activity of skinned bovine cardiac myofibrils", "assay_type": "biochemical", "details": "Ca2+ activating to 75% of maximal rate", "method_in_brief": "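Steady-state ATPase of detergent-skinned bovine left-ventricular myofibrils (1 mg/mL), PK/LDH-coupled NADH read at 340 nm, in PIPES/MgCl2 buffer pH 6.8 with 50 μM ATP, 0.6 mM EGTA and CaCl2 set for 50% or 75% activation. Inhibition of activity measured.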", "units": {"CDMF75 IC15": "µM"}, "values": [{"smiles": "CC(C)N1CC(=O)N(Cc2cccc(F)c2)C(c2ccc(Cl)cc2)C1=O", "note": "(stereo not shown) [Compound 299, 3-(4-chlorophenyl)-4-(3-fluorobenzyl)-1-isopropylpiperazine-2,5-dione]", "CDMF75 IC15": 7.0}, {"smiles": "Cc1ccccc1CN1C(=O)CN(C(C)C)C(=O)C1c1ccc(Cl)cc1", "note": "(stereo not shown) [Compound 300, 3-(4-chlorophenyl)-1-isopropyl-4-(2-methylbenzyl)piperazine-2,5-dione]", "CDMF75 IC15": 28.3}, {"smiles": "CC(C)N1CC(=O)N(Cc2ccccc2C#N)C(c2ccc(Cl)cc2)C1=O", "note": "(stereo not shown) [Compound 301, 2-((2-(4-chlorophenyl)-4-isopropyl-3,6-dioxo-piperazin-1-yl)methyl)-benzonitrile]", "CDMF75 IC15": 18.6}, {"smiles": "CC(C)N1CC(=O)N(Cc2ccccc2Cl)C(c2ccc(Cl)cc2)C1=O", "note": "(stereo not shown) [Compound 302, 4-(2-chlorobenzyl)-3-(4-chlorophenyl)-1-isopropylpiperazine-2,5-dione]", "CDMF75 IC15": 15.2}, {"smiles": "CC(C)N1CC(=O)N(Cc2ccc(F)cc2)C(c2ccc(Cl)cc2)C1=O", "note": "(stereo not shown) [Compound 303, 3-(4-chlorophenyl)-4-(4-fluorobenzyl)-1-isopropylpiperazine-2,5-dione]", "CDMF75 IC15": 3.7}, {"smiles": "Cc1cccc(CN2C(=O)CN(C(C)C)C(=O)C2c2ccc(Cl)cc2)c1", "note": "(stereo not shown) [Compound 304, 3-(4-chlorophenyl)-1-isopropyl-4-(3-methyl-benzyl)piperazine-2,5-dione]", "CDMF75 IC15": 16.4}, {"smiles": "Cc1ccc(CN2C(=O)CN(C(C)C)C(=O)C2c2ccc(Cl)cc2)cc1", "note": "(stereo not shown) [Compound 305, 3-(4-chlorophenyl)-1-isopropyl-4-(4-methylbenzyl)piperazine-2,5-dione]", "CDMF75 IC15": 6.0}, {"smiles": "CC(C)N1CC(=O)N(Cc2cccc(C#N)c2)C(c2ccc(Cl)cc2)C1=O", "note": "(stereo not shown) [Compound 306, 3-((2-(4-chlorophenyl)-4-isopropyl-3,6-dioxo-piperazin-1-yl)methyl)-benzonitrile]", "CDMF75 IC15": 27.0}, {"smiles": "CC(C)N1CC(=O)N(Cc2ccc(C#N)cc2)C(c2ccc(Cl)cc2)C1=O", "note": "(stereo not shown) [Compound 307, 4-((2-(4-chlorophenyl)-4-isopropyl-3,6-dioxo-piperazin-1-yl)methyl)-benzonitrile]", "CDMF75 IC15": 36.7}, {"smiles": "CC(C)N1CC(=O)N(Cc2cccc(C(F)(F)F)c2)C(c2ccc(Cl)cc2)C1=O", "note": "(stereo not shown) [Compound 308, 3-(4-chlorophenyl)-1-isopropyl-4-(3-(trifluoro-methyl)benzyl)piperazine-2,5-dione]", "CDMF75 IC15": 22.7}, {"smiles": "CC(C)N1CC(=O)N(Cc2ccc(C(F)(F)F)cc2)C(c2ccc(Cl)cc2)C1=O", "note": "(stereo not shown) [Compound 309, 3-(4-chlorophenyl)-1-isopropyl-4-(4-(trifluoro-methyl)benzyl)piperazine-2,5-dione]", "CDMF75 IC15": 2.8}, {"smiles": "CC(C)N1CC(=O)N(Cc2ccc(Cl)cc2)C(c2ccccc2Cl)C1=O", "note": "(stereo not shown) [Compound 310, 4-(4-chlorobenzyl)-3-(2-chlorophenyl)-1-isopropylpiperazine-2,5-dione]", "CDMF75 IC15": 13.1}, {"smiles": "CC(C)N1CC(=O)N(Cc2ccc(Cl)cc2)C(c2ccc(F)cc2)C1=O", "note": "(stereo not shown) [Compound 311, 4-(4-chlorobenzyl)-3-(4-fluorophenyl)-1-isopropylpiperazine-2,5-dione]", "CDMF75 IC15": 5.9}, {"smiles": "CC(C)N1CC(=O)N(Cc2ccc(Cl)cc2)C(c2cccc(Cl)c2)C1=O", "note": "(stereo not shown) [Compound 312, 4-(4-chlorobenzyl)-3-(3-chlorophenyl)-1-isopropylpiperazine-2,5-dione]", "CDMF75 IC15": 4.9}, {"smiles": "COc1ccc(C2C(=O)N(C(C)C)CC(=O)N2Cc2ccc(Cl)cc2)cc1", "note": "(stereo not shown) [Compound 313, 4-(4-chlorobenzyl)-1-isopropyl-3-(4-methoxy-phenyl)piperazine-2,5-dione]", "CDMF75 IC15": 3.9}, {"smiles": "CC(C)N1CC(=O)N(Cc2ccc(Cl)cc2)C(c2ccc(C(F)(F)F)cc2)C1=O", "note": "(stereo not shown) [Compound 314, 4-(4-chlorobenzyl)-1-isopropyl-3-(4-(trifluoro-methyl)phenyl)piperazine-2,5-dione]", "CDMF75 IC15": 8.4}, {"smiles": "CC(C)N1CC(=O)N(Cc2ccc(C(F)(F)F)cn2)C(c2ccc(Cl)cc2)C1=O", "note": "(stereo not shown) [Compound 315, 3-(4-chlorophenyl)-1-isopropyl-4-((5-(trifluoromethyl)pyridin-2-yl)methyl)piperazine-2,5-dione]", "CDMF75 IC15": 28.9}, {"smiles": "CC(C)N1CC(=O)N(Cc2ccc(Cl)cc2)C(C)(c2ccc(Cl)cc2)C1=O", "note": "(stereo not shown) [Compound 316, 4-(4-chlorobenzyl)-3-(4-chlorophenyl)-1-isopropyl-3-methylpiperazine-2,5-dione]", "CDMF75 IC15": 14.3}, {"smiles": "CC(C)N1CC(=O)N(Cc2ccc(Cl)cc2)C2(Cc3ccccc3C2)C1=O", "note": "[Compound 317, 1′-(4-chlorobenzyl)-4′-isopropyl-1,3-dihydrospiro[indene-2,2′-piperazine]-3′,6′-dione]", "CDMF75 IC15": 2.3}, {"smiles": "CC(C)N1CC(=O)N(Cc2ccc(Cl)cc2)C2(CC(c3ccccc3)C2)C1=O", "note": "(stereo not shown) [Compound 318, 5-(4-chlorobenzyl)-8-isopropyl-2-phenyl-5,8-diazaspiro[3.5]nonane-6,9-dione]", "CDMF75 IC15": 7.3}, {"smiles": "CC(C)N1CC(=O)N(Cc2ccc(C(F)(F)F)cc2)C2(CCc3ccccc32)C1=O", "note": "(stereo not shown) [Compound 319, 4′-isopropyl-1′-(4-(trifluoromethyl)benzyl)-2,3-dihydrospiro[indene-1,2′-piperazine]-3′,6′-dione]", "CDMF75 IC15": 24.0}, {"smiles": "CNC(=O)N1CC2(C1)C(=O)N(C(C)CC#N)CC(=O)N2Cc1ccc(C(F)(F)F)cc1", "note": "(stereo not shown) [Compound 320, 8-(1-cyanopropan-2-yl)-N-methyl-6,9-dioxo-5-(4-(trifluoromethyl)benzyl)-2,5,8-triazaspiro[3.5]nonane-2-carboxamide]", "CDMF75 IC15": 17.8}, {"smiles": "CNC(=O)N1CC2(C1)C(=O)N([C@H]1CC[C@@H](C#N)C1)CC(=O)N2Cc1ccc(C(F)(F)F)cc1", "note": "[Compound 321, 8-((1S,3R)-3-cyano-cyclopentyl)-N-methyl-6,9-dioxo-5-(4-(trifluoromethyl)benzyl)-2,5,8-triazaspiro[3.5]-nonane-2-carboxamide]", "CDMF75 IC15": 22.1}, {"smiles": "CC(=O)N1CC2(C1)C(=O)N([C@H]1CC[C@H](C)CC1)CC(=O)N2Cc1ccc(C(F)(F)F)cc1", "note": "[Compound 322, 2-acetyl-8-((1r,4r)-4-methylcyclohexyl)-5-(4-(trifluoromethyl)benzyl)-2,5,8-triazaspiro[3.5]-nonane-6,9-dione]", "CDMF75 IC15": 10.8}, {"smiles": "CCC1CCC(N2CC(=O)N(Cc3ccc(C(F)(F)F)cc3)C3(CN(C(C)=O)C3)C2=O)CC1", "note": "(stereo not shown) [Compound 323, 2-acetyl-8-(4-ethylcyclo-hexyl)-5-(4-(trifluoro-methyl)benzyl)-2,5,8-triazaspiro[3.5]nonane-6,9-dione]", "CDMF75 IC15": 6.4}, {"smiles": "CC(=O)N1CC2(C1)C(=O)N(C1CCC(C(F)F)CC1)CC(=O)N2Cc1ccc(C(F)(F)F)cc1", "note": "(stereo not shown) [Compound 324, 2-acetyl-8-(4-(difluoro-methyl)cyclohexyl)-5-(4-(trifluoromethyl)benzyl)-2,5,8-triazaspiro[3.5]-nonane-6,9-dione]", "CDMF75 IC15": 11.5}, {"smiles": "CC(=O)N1CC2(C1)C(=O)N([C@H]1CC[C@H](C#N)CC1)CC(=O)N2Cc1ccc(C(F)(F)F)cc1", "note": "[Compound 325, (1r,4r)-4-(2-acetyl-6,9-dioxo-5-(4-(trifluoromethyl)benzyl)-2,5,8-triazaspiro[3.5]nonan-8-yl)cyclohexane-l-carbonitrile]", "CDMF75 IC15": 22.8}, {"smiles": "CC(=O)N1CC2(C1)C(=O)N(C1CCCCCC1)CC(=O)N2Cc1ccc(C(F)(F)F)cc1", "note": "[Compound 326, 2-acetyl-8-cycloheptyl-5-(4-(trifluoromethyl)benzyl)-2,5,8-triazaspiro[3.5]-nonane-6,9-dione]", "CDMF75 IC15": 23.7}, {"smiles": "CC(C)N1CC(=O)N(Cc2ccc(C(F)(F)F)cc2)C2(CCN(c3ccccc3)C2=O)C1=O", "note": "(stereo not shown) [Compound 327, 9-isopropyl-2-phenyl-6-(4-(trifluoromethyl)benzyl)-2,6,9-triazaspiro[4.5]decane-1,7,10-trione]", "CDMF75 IC15": 9.8}, {"smiles": "CC(C)N1CC(=O)N([C@@H](C)c2ccc(C(F)(F)F)cc2)C2(CN(c3ccccc3)C2)C1=N", "note": "[Compound 328, (S)-9-imino-8-isopropyl-2-phenyl-5-(1-(4-(trifluoromethyl)phenyl)ethyl)-2,5,8-triazaspiro[3.5]nonan-6-one]", "CDMF75 IC15": 19.3}, {"smiles": "CC(C)N1C(=O)C2(CN(c3ccccc3)C2)N(Cc2ccc(Cl)cc2)C(=O)C1C", "note": "(stereo not shown) [Compound 329, 5-(4-chlorobenzyl)-8-isopropyl-7-methyl-2-phenyl-2,5,8-triazaspiro-[3.5]nonane-6,9-dione]", "CDMF75 IC15": 9.3}, {"smiles": "CC(C)N1CC(=O)N(Cc2ccc(Cl)cc2)C2(CCN(c3cnn(C)c3)C2=O)C1=O", "note": "(stereo not shown) [Compound 330, 6-(4-chlorobenzyl)-9-isopropyl-2-(1-methyl-1H-pyrazol-4-yl)-2,6,9-triazaspiro[4.5]decane-1,7,10-trione]", "CDMF75 IC15": 10.7}, {"smiles": "CC(C)N1CC(=O)N(Cc2ccc(Cl)cc2)C2(CC(=O)N(c3ccccc3)C2)C1=O", "note": "(stereo not shown) [Compound 331, 6-(4-chlorobenzyl)-9-isopropyl-2-phenyl-2,6,9-triazaspiro[4.5]decane-3,7,10-trione]", "CDMF75 IC15": 30.9}, {"smiles": "CC(C)N1CC(=O)N(Cc2ccc(Cl)cc2)C2(CC(=O)N(c3ccccn3)C2)C1=O", "note": "(stereo not shown) [Compound 332, 6-(4-chlorobenzyl)-9-isopropyl-2-(pyridin-2-yl)-2,6,9-triazaspiro[4.5]decane-3,7,10-trione]", "CDMF75 IC15": 16.6}, {"smiles": "Cc1cc(N2CCC3(C2=O)C(=O)N(C(C)C)CC(=O)N3Cc2ccc(Cl)cc2)ccn1", "note": "(stereo not shown) [Compound 333, 6-(4-chlorobenzyl)-9-isopropyl-2-(2-methyl-pyridin-4-yl)-2,6,9-triazaspiro[4.5]decane-1,7,10-trione]", "CDMF75 IC15": 16.6}, {"smiles": "CNC(=O)N1CCC2(C1)C(=O)N(Cc1ccc(OC)cc1)CC(=O)N2Cc1ccc(Cl)cc1", "note": "(stereo not shown) [Compound 334, 6-(4-chlorobenzyl)-9-(4-methoxybenzyl)-N-methyl-7,10-dioxo-2,6,9-triazaspiro[4.5]decane-2-carboxamide]", "CDMF75 IC15": 8.0}, {"smiles": "CNC(=O)N1CC2(C1)C(=O)N(Cc1ccc(C(F)(F)F)cc1)CC(=O)N2Cc1ccc(C(F)(F)F)cc1", "note": "[Compound 335, N-methyl-6,9-dioxo-5,8-bis(4-(trifluoromethyl)benzyl)-2,5,8-triazaspiro[3.5]nonane-2-carboxamide]", "CDMF75 IC15": 12.2}]}]}
